Data from patent publication US4292305A, “Antiallergic imidodisulfamides” (SmithKline Corporation, priority 1980, dated 1981).

System: slow reacting substance of anaphylaxis (SRS-A)
Test: Inhibition of SRS-A induced contraction of guinea pig ileum
Format: cell-based
Details: Cavia porcellus, 0.25 h, partially purified SRS-A from guinea pig lung at 40 μg/ml, isolated guinea pig ileum, read-out: antagonism of SRS-A
Protocol: The SRS-A antagonist activity of the compounds of this invention is measured by the ability of the active medicament to inhibit SRS-A induced contraction of guinea pig ileum. In this test system, sections of ileum are resected from guinea pigs and placed in 5 ml. tissue baths containing a modified Tyrode's solution. One end of the tissue is fixed to a glass tissue holder, the other is connected to a force-displacement transducer and the tissue is placed under a tension of 500 mg. Isometric tissue contractions are recorded on a six channel polygraph. Baths are constantly aerated with 95% O2 -5% CO2. After a 20 minute stabilization period a concentration of the appropriate agonist which provides a contraction height of 60-80% of the maximum obtainable to that agonist (as determined from full sequential concentration--response curves in separate experiments) is added to the tissue bath and the response recorded. The procedure is repeated until reproducible responses are obtained. […] Percent inhibition produced by the test compound is calculated by substracting the mean percentage change in control tissue from the mean percentage change in tissues exposed to the test compound. Additional compounds are then evaluated as long as the tissue remains reproducibly responsive to the agonist. […]

| SMILES | inhibition at 50 µM (test compound 5×10^-5 M) [%] | inhibition at 10 µM (test compound 1×10^-5 M) [%] |
| --- | --- | --- |
| O=S(=O)(Nc1ccc(Br)cc1)NS(=O)(=O)Nc1ccc(Br)cc1 [1,5-di-(4-bromophenyl)-imidodisulfamide] | 47 | – |
| O=S(=O)(NCCCCc1ccccc1)NS(=O)(=O)NCCCCc1ccccc1 [1,5-di-(4-phenylbutyl)-imidodisulfamide] | – | 40 |
